Key:
[1] = target: T1, dNS3 (Hepatitis C virus genotype 1b, UniProt P26663, A1092G/F1173S/K1113A/P1112Q/S1165A); format: cell-based, hepatitis C virus (HCV); conditions: dNS3-NLuc and CLuc-PMED; HEK293FT lysates; drug added at time of transfection, 48 hours
T1 construct: expressed in transfected cells; host or cells: HEK293FT (read in lysate)
Experimental: To test this, permutations of dNS3, NS3wT and each peptide variant were fused to split fragments of Renilla luciferase (FIG. 2A).
(§1) Luciferase assay. HEK293FT cells were transfected with split luciferase constructs. In the case of drug pretreatment for dose curve experiments, drug was added at the indicated concentration at the time of transfection. Two days later, the transfected cells were lysed with 1× Ex Luciferase Assay Buffer using the Nano-Glo® Dual-Luciferase® Reporter Assay System (Promega). Immediately after, the samples were treated with an additional volume of 1× Ex Luciferase Assay Buffer with the indicated concentration of drug.
(§2) The samples were then read with a plate reader once per minute measuring luminescence with 500 millisecond exposure time. […] For kinetics analysis, linear regression analysis was performed on the untreated samples and used to normalize the data for the treated samples.

[2] = target: dNS3-Cre-PHI (Hepatitis C virus genotype 1b, UniProt P26663, A1092G/F1173S/K1113A/P1112Q/S1165A); conditions: catalytic NS3 S139A mutation (dNS3)
Chain of dNS3-Cre-PHI (P26663 1027-1206 A1092G/P1112Q/K1113A/S1165A/F1173S): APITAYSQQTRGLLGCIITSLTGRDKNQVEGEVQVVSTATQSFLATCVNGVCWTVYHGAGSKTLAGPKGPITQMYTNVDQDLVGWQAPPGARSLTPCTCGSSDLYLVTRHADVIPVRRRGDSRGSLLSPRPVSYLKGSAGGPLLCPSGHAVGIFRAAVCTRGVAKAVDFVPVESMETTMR
Source text: (§3) For Cre recombinase control in mammalian cells, live cells were gated in the same manner as above and gated for transfection by either a co-transfection marker of pmiRFP670-N1 or inter-plasmatic constitutive expression of iRFP670 under a separate constitutive promoter. Cells were further deemed as GFP positive if their fluorescence intensity was greater than or equal to the top 1% of non-transfected cells. Baseline activation of GFP positive cells was then subtracted using transfection marker only cells as baseline for all measurements.

[3] = target: wild-type NS3 (Hepatitis C virus genotype 1b, UniProt P26663, A1092G/F1173S/K1113A/P1112Q); format: cell-based, hepatitis C virus (HCV); conditions: NS3WT-NLuc and CLuc-PMED; compared with dNS3
Chain of wild-type NS3 (P26663 1027-1206 A1092G/P1112Q/K1113A/F1173S): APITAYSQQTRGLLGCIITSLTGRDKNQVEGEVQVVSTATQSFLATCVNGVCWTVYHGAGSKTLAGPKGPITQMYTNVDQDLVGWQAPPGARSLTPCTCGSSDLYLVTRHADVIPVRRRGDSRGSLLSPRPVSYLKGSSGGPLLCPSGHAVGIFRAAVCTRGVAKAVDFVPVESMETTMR
Experimental: as §1, §2

[4] = target: T1, dNS3; format: biochemical, hepatitis C virus (HCV); conditions: saturating drug concentrations; 3 pM of each drug added at time of lysis
Experimental: as §1, §2

[5] = target: telaprevir inducible (TI) NS3 (Hepatitis C virus genotype 1b, UniProt P26663, D1194Y/F1069L/Q1106K/S1148R); format: cell-based, hepatitis C virus (HCV); conditions: telaprevir (10 pM); flow cytometry 48 hours post-drug addition
Chain of telaprevir inducible (TI) NS3 (P26663 1027-1206 F1069L/A1092G/Q1106K/P1112Q/K1113A/S1148R/F1173S/D1194Y): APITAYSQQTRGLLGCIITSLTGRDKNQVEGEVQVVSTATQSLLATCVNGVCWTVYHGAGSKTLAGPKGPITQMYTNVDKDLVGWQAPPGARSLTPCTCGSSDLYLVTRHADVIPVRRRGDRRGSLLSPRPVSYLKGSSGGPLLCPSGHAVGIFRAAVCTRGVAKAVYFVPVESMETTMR
Source text: (§4) To accomplish this, it was sought to make orthogonal inducible Cre recombinases.
as §3

[6] = target: NS3(TI) with S139A mutation (Hepatitis C virus genotype 1b, UniProt P26663, D1194Y/F1069L/Q1106K/S1148R/S1165A); format: cell-based, hepatitis C virus (HCV); conditions: among the three drugs tested (grazoprevir, asunaprevir, telaprevir)
Chain of NS3(TI) with S139A mutation (P26663 1027-1206 F1069L/A1092G/Q1106K/P1112Q/K1113A/S1148R/S1165A/F1173S/D1194Y): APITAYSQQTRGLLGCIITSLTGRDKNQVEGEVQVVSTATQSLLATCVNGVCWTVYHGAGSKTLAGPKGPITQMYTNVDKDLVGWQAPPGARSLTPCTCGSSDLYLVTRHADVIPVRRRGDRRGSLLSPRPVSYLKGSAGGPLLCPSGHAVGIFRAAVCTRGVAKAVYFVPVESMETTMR
Source text: as §4, §3

T1 sequence (P26663 1027-1206 A1092G/P1112Q/K1113A/S1165A/F1173S): as the sequence (P26663 1027-1206 A1092G/P1112Q/K1113A/S1165A/F1173S) above

SMILES	Luciferase activity, dose response [1]	Effect of NS3 S139A mutation alone on drug induction of Cre [2]	Luciferase activity, dose response with wild-type NS3 [3]	Dissociation of dNS3-PMED complexes (temporal turn-off) [4]	Induction of Cre recombination, telaprevir inducible (TI) construct [5]	Drug sensitivity of NS3(TI) Cre with NS3 S139A mutation [6]
CC(C)(C)OC(=O)N[C@H]1CCCCC/C=C\[C@@H]2C[C@@]2(C(=O)NS(=O)(=O)C2CC2)NC(=O)[C@@H]2C[C@@H](OC(=O)N3Cc4cccc(F)c4C3)CN2C1=O [danoprevir, Danoprevir]	inhibit luciferase activity in a dose dependent manner	–	–	–	–	–
CCC[C@H](NC(=O)[C@@H]1[C@H]2CCC[C@H]2CN1C(=O)[C@@H](NC(=O)[C@@H](NC(=O)c1cnccn1)C1CCCCC1)C(C)(C)C)C(=O)C(=O)NC1CC1 [telaprevir]	significant resistance	reduce telaprevir sensitivity	effect is reverted	did not dissociate dNS3-PMD complexes well	strongly induced	ablates telaprevir sensitivity

Reference: patent US12691096B2, “Drug-controlled systems and uses thereof” (TRUSTEES OF BOSTON UNIVERSITY, priority 2020, dated 2026)
